In patent US12091393B2, “Small molecule vaccine adjuvant for enhancing or prolonging immune response” (The Regents of the University of California, priority 2018, dated 2024):
Read-outs that look alike come from different tables or passages of the source.

Legend:
NF-κB [1] = assay: Measurement of NF-κB activation using THP1-Blue NF-κB cells (SEAP); assay type: cell-based; conditions: for activity at 5 µM: 20 h, two point normalized, compound 1 as 200%; for NF-κB activity (SAR discussion, in words): evaluated in both the presence and absence of LPS
NF-κB [2] = assay: cell-based NF-κB FRET assay; conditions: compound + LPS; two point normalized, compound 1 as 200%, LPS (10 ng/mL) as 100%
Text: Site A was assigned the 4-substituent of thiazole ring, site B was the thiazole ring itself, site C was the central amide bond in the structure, site D was the benzene ring bearing 1,4-carboxyl and sulfamoyl group, site E was the sulfonamide functional group and site F was the amide substituent on the sulfamoyl group.

THP-1 cells = assay: Cell viability assay (MTT); assay type: cell-based; conditions: compound 5 μM alone, 18 h, normalized to DMSO as 100%
Procedure: THP-1 cells were plated in 96-well plates (10^5 cells/well) in 100 μL RPMI supplemented with 10% FBS, 100 U/mL penicillin and 100 μg/ml streptomycin. Compounds were dissolved in DMSO at 1 mM stock solution and were further diluted to 10 μM in the assay medium. 100 μL of this solution was added to the cells to obtain a final compound concentration of 5 μM ([…]). After 18 h incubation, a solution of MTT in assay media (0.5 mg/mL) was added to each well and further incubated for 4 to 6 h, followed by addition of cell lysis buffer (15% w/v SDS and 0.12% v/v 12N HCl aqueous solution), incubated overnight, and then absorbance measured at 570 nm using 650 nm as reference using Tecan Infinite M200 plate reader.

[3] = compound 5 μM + LPS, LPS (10 ng/mL) as 100%, read-out: NF-κB SEAP Compound + LPS % Activation
[4] = compound 5 μM alone, LPS or DMSO as 100%, read-out: NF-κB SEAP Compound alone % Activation

Row | Structure (SMILES) | activity at 5 µM (NF-κB [1]; [3]) [%] | activity at 5 µM (NF-κB [1]; [4]) [%] | NF-κB activity (SAR discussion, in words) (NF-κB [1]) | NF-κB FRET Compound + LPS % Activation (NF-κB [2]) [%] | MTT Compound alone % Viability (THP-1 cells) [%] | NF-κB activity when tested alone (in words) (NF-κB [1]; compound alone, without LPS)
1 | Cc1ccc(C)c(-c2nc(NC(=O)c3ccc(S(=O)(=O)N4CCCCC4)cc3)sc2-c2ccco2)c1 [Compound 18j, N-(4-(2,5-dimethylphenyl)-5-(furan-2-yl)thiazol-2-yl)-4-(piperidin-1-ylsulfonyl)benzamide] | 102 | 100 | completely inactive | 160.49 | 107.56 | 
2 | C#CCNS(=O)(=O)c1ccc(C(=O)Nc2nc(-c3cc(C)ccc3C)cs2)cc1 [Compound 72a, N-(4-(2,5-dimethylphenyl)thiazol-2-yl)-4-(N-(prop-2-yn-1-yl)sulfamoyl)benzamide] | 102 | 99.2 | lost their activity | 121.36 | 87.46 | 
3 | Cc1ccc(-c2csc(NC(=O)c3ccc(S(=O)(=O)N4CCCCC4)cc3)n2)cc1C [Compound 12n, N-(4-(3,4-dimethylphenyl)thiazol-2-yl)-4-(piperidin-1-ylsulfonyl)benzamide] | 98 | 98.7 | inactive | 128.01 | 97.59 | 
4 | C#Cc1sc(NC(=O)c2ccc(S(=O)(=O)N3CCCCC3)cc2)nc1-c1cc(C)ccc1C [Compound 18o, N-(4-(2,5-dimethylphenyl)-5-ethynylthiazol-2-yl)-4-(piperidin-1-ylsulfonyl)benzamide] | 153 | 118 | weak activity | 101.71 | 111.27 | 
5 | Cc1ccc(-c2csc(NC(=O)c3ccc(S(=O)(=O)N4CCCCC4)cc3)n2)c(C)c1 [Compound 12m, N-(4-(2,4-dimethylphenyl)thiazol-2-yl)-4-(piperidin-1-ylsulfonyl)benzamide] | 86.7 | 98.5 | inactive | 161.33 | 101.40 | 
6 | Cc1cc(C)cc(-c2csc(NC(=O)c3ccc(S(=O)(=O)N4CCCCC4)cc3)n2)c1 [Compound 12o, N-(4-(3,5-dimethylphenyl)thiazol-2-yl)-4-(piperidin-1-ylsulfonyl)benzamide] | 93.2 | 98.2 | inactive | 170.36 | 92.91 | 
7 | Cc1ccc(C)c(-c2csc(NC(=O)c3ccc(SC4CCCCC4)cc3)n2)c1 [Compound 49a, 4-(cyclohexylthio)-N-(4-(2,5-dimethylphenyl)thiazol-2-yl)benzamide] | 114 | 99.7 | none of these modifications at site D or E were tolerated | 139.79 | 85.22 | 
8 | Cc1ccc(C)c(-c2csc(NCc3ccc(S(=O)(=O)N4CCCCC4)cc3)n2)c1 [Compound 34a, 4-(2,5-dimethylphenyl)-N-(4-(piperidin-1-ylsulfonyl)benzyl)thiazol-2-amine] | 102 | 99.1 | inactive | 106.53 | 85.48 | 
9 | CCCC#Cc1sc(NC(=O)c2ccc(S(=O)(=O)N3CCCCC3)cc2)nc1-c1cc(C)ccc1C [Compound 18q, N-(4-(2,5-dimethylphenyl)-5-(pent-1-yn-1-yl)thiazol-2-yl)-4-(piperidin-1-ylsulfonyl)benzamide] | 242 | 393 | most potent | 215.78 | 105.84 | very potent
10 | CCN(c1ccccc1)S(=O)(=O)c1ccc(C(=O)Nc2nc(-c3cc(C)ccc3C)cs2)cc1 [Compound 58d, N-(4-(2,5-dimethylphenyl)thiazol-2-yl)-4-(N-ethyl-N-phenylsulfamoyl)benzamide] | 89.8 | 105 | inactive | 74.73 | 81.42 | 
11 | CCCCN(CCCC)S(=O)(=O)c1ccc(C(=O)Nc2nc(-c3cc(C)ccc3C)cs2)cc1 [Compound 58c, 4-(N,N-dibutylsulfamoyl)-N-(4-(2,5-dimethylphenyl)thiazol-2-yl)benzamide] | 105 | 103 | lost activity | 104.47 | 86.41 | 
12 | Cc1ccc(N=[N+]=[N-])c(-c2csc(NC(=O)c3ccc(S(=O)(=O)N4CCCCC4)cc3)n2)c1 [Compound 70, N-(4-(2-azido-5-methylphenyl)thiazol-2-yl)-4-(piperidin-1-ylsulfonyl)benzamide] | 97.3 | 101 | inactive | 70.93 | 77.84 | 
13 | CCOC1CCN(S(=O)(=O)c2ccc(C(=O)Nc3nc(-c4cc(C)ccc4C)cs3)cc2)CC1 [Compound 58g, N-(4-(2,5-dimethylphenyl)thiazol-2-yl)-4-((4-ethoxypiperidin-1-yl)sulfonyl)benzamide] | 178 | 200 | active | 189.46 | 112.63 | 
14 | Cc1ccc(C)c(-c2csc(NC(=O)c3ccc(S(=O)(=O)NC4CCCCC4)cc3)n2)c1 [Compound 58e, 4-(N-cyclohexylsulfamoyl)-N-(4-(2,5-dimethylphenyl)thiazol-2-yl)benzamide] | 94.5 | 98.3 | inactive | 52.23 | 93.65 | 
15 | C#CC1CCN(S(=O)(=O)c2ccc(C(=O)Nc3nc(-c4cc(N=[N+]=[N-])ccc4C)cs3)cc2)CC1 [Compound 73, N-(4-(5-azido-2-methylphenyl)thiazol-2-yl)-4-((4-ethynylpiperidin-1-yl)sulfonyl)benzamide] | 398 | 363 |  | 197.10 | 84.53 | 
16 | Cc1ccc(C)c(-c2csc(NC(=O)c3ccc(S(=O)(=O)N4CCC5(CC4)N=N5)cc3)n2)c1 [Compound 72e, 4-((1,2,6-triazaspiro[2.5]oct-1-en-6-yl)sulfonyl)-N-(4-(2,5-dimethylphenyl)thiazol-2-yl)benzamide] | 168 | 144 | active | 168.82 | 84.40 | 
17 | Cc1csc(NC(=O)c2ccc(S(=O)(=O)N3CCCCC3)cc2)n1 [Compound 12g, N-(4-methylthiazol-2-yl)-4-(piperidin-1-ylsulfonyl)benzamide] | 101 | 99.9 | None of these molecules had any NF-κB activity | 110.48 | 114.29 | 
